According to patent US8435978B2, “Substituted sulfonamide compounds” (Gruenenthal GmbH, priority 2006, dated 2013):
Structures can show the parent of a compound that is named as a salt. Where two headings read alike, the source gives them in different places.

How the values were obtained:
human B1R receptor = target: T1, human B1R receptor (Homo sapiens, UniProt P46663); assay: Functional study on the bradykinin receptor 1 (B1R), FLIPR Ca2+ assay, hB1R cells; assay type: cell-based; settings: agonist Lys-Des-Arg9-bradykinin 0.5 nM, % inhibition compared with the maximum achievable inhibition; for inhibition at 10 µM: read-out: B1R Antagonism, human [10 μM] % Inhibition
T1 construct: host or cells: CHO K1 cells (Chinese hamster ovary), stably transfected
T1 sequence (P46663 1-353): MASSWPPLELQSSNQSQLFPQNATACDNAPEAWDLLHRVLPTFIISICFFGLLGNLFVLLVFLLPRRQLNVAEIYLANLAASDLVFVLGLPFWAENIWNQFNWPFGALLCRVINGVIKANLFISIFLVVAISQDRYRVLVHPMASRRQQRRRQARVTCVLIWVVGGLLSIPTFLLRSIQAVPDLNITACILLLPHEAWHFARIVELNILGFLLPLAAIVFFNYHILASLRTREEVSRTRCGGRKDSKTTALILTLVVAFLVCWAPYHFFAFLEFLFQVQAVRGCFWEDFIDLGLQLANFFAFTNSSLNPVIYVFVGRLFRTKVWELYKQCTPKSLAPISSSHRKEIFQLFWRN
How it was run: (§1)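 FLIPR Ca2+ read-out (Fluo-4, peak fluorescence) in stably transfected CHO K1 cells. Compounds at 10 μM, then 10 min later agonist challenge: human B1R with Lys-Des-Arg9-bradykinin 0.5 nM, rat B1R with Des-Arg9-bradykinin 100 nM; reported as % activation or % of maximal inhibition.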

B1R receptor of the rat = target: T2, B1R receptor of the rat (Rattus norvegicus, UniProt P97583); assay: Functional study on the bradykinin receptor 1 (B1R), FLIPR Ca2+ assay, rB1R cells; assay type: cell-based; settings: agonist Des-Arg9-bradykinin 100 nM, % inhibition compared with the maximum achievable inhibition; for inhibition at 10 µM: read-out: B1R Antagonism, rat [10 μM] % Inhibition
T2 construct: host or cells: CHO K1 cells (Chinese hamster ovary), stably transfected
T2 sequence (P97583 1-337): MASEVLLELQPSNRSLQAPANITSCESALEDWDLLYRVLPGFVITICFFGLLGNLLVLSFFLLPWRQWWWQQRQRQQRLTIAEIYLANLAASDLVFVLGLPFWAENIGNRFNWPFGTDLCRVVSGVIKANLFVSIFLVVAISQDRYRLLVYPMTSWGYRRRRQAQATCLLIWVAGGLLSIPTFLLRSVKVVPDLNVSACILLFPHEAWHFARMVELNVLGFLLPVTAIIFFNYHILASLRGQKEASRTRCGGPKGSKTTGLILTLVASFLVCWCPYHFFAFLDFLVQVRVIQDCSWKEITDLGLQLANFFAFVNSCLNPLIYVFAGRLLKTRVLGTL
How it was run: as §1

[1] = test substance 10 μM, hB1R CHO K1 cells
[2] = test substance 10 μM, rB1R CHO K1 cells

SMILES: COc1cc(C)c(S(=O)(=O)N2CCCCC2COCC(=O)N2CCN(CCC3CCN(C)CC3)CC2)c(C)c1 (stereo not shown) [Example 212, 2-((1-(4-methoxy-2,6-dimethylphenylsulfonyl)piperidin-2-yl)methoxy)-1-(4-(2-(1-methylpiperidin-4-yl)ethyl)piperazin-1-yl)ethanone]
- inhibition at 10 µM (human B1R receptor; CHO-K1, test substance 10 μM): 107%
- inhibition at 10 µM (B1R receptor of the rat; CHO-K1, test substance 10 μM): 100%

SMILES: O=C(COCC1CCCCN1S(=O)(=O)c1cccc2ccccc12)NCC1CCCN(Cc2ccccc2)C1 (stereo not shown) [Example 34, N-(1-benzyl-piperidin-3-ylmethyl)-2-[1-(naphthyl-1-sulfonyl)-piperidin-2-ylmethoxy]-acetamide]
- B1R Antagonism, human [10 μM] % Inhibition (human B1R receptor; [1]): 79.9%
- B1R Antagonism, rat [10 μM] % Inhibition (B1R receptor of the rat; [2]): 39.48%

SMILES: O=C(COCC1CCCCN1S(=O)(=O)c1ccc(Cl)c(Cl)c1)N1CCN(c2ccccc2F)CC1 (stereo not shown) [Example 86, 2-[1-(3,4-dichloro-phenylsulfonyl)-piperidin-2-ylmethoxy]-1-[4-(2-fluoro-phenyl)-piperazin-1-yl]-ethanone]
- inhibition at 10 µM (human B1R receptor; CHO-K1, test substance 10 μM): 43.2%
- inhibition at 10 µM (B1R receptor of the rat; CHO-K1, test substance 10 μM): 0%

SMILES: COc1cc(C)c(S(=O)(=O)N2CCCC2COCC(=O)Nc2ccc3c(c2)ncn3C)c(C)c1 (stereo not shown) [Example 494, 2-((1-(4-methoxy-2,6-dimethylphenylsulfonyl)pyrrolidin-2-yl)methoxy)-N-(1-methyl-1H-benzo[d]imidazol-5-yl)acetamide]
- inhibition at 10 µM (human B1R receptor; CHO-K1, test substance 10 μM): 26.2%
- inhibition at 10 µM (B1R receptor of the rat; CHO-K1, test substance 10 μM): 73.4%

SMILES: COc1cc(C)c(S(=O)(=O)N2CCCC2COCC(=O)NC(CN2CCOCC2)c2ccccc2)c(C)c1 (stereo not shown) [Example 500, 2-((1-(4-methoxy-2,6-dimethylphenylsulfonyl)pyrrolidin-2-yl)methoxy)-N-(2-morpholino-1-phenylethyl)acetamide]
- inhibition at 10 µM (human B1R receptor; CHO-K1, test substance 10 μM): 41.8%
- inhibition at 10 µM (B1R receptor of the rat; CHO-K1, test substance 10 μM): 93.2%

SMILES: COc1cc(C)c(S(=O)(=O)N2CCCCC2COCC(=O)Nc2ccc(Cn3ccnc3)cc2)c(C)c1 (stereo not shown) [Example 420, N-(4-((1H-imidazol-1-yl)methyl)phenyl)-2-((1-(4-methoxy-2,6-dimethylphenylsulfonyl)piperidin-2-yl)methoxy)acetamide]
- inhibition at 10 µM (human B1R receptor; CHO-K1, test substance 10 μM): 100%
- inhibition at 10 µM (B1R receptor of the rat; CHO-K1, test substance 10 μM): 92%

SMILES: Cc1cccc(Cl)c1S(=O)(=O)N1CCCCC1COCC(=O)N1CCN(C2CCN(C)CC2)CC1 (stereo not shown) [Example 109, 2-((1-(2-chloro-6-methylphenylsulfonyl)piperidin-2-yl)methoxy)-1-(4-(1-methylpiperidin-4-yl)piperazin-1-yl)ethanone]
- inhibition at 10 µM (human B1R receptor; CHO-K1, test substance 10 μM): 103%
- inhibition at 10 µM (B1R receptor of the rat; CHO-K1, test substance 10 μM): 102%

SMILES: COc1cc(C)c(S(=O)(=O)N2CCCCC2COCC(=O)N2CCC(=O)CC2)c(C)c1 (stereo not shown) [Example 116, 1-(2-((1-(4-methoxy-2,6-dimethylphenylsulfonyl)piperidin-2-yl)methoxy)acetyl)piperidin-4-one]
- inhibition at 10 µM (human B1R receptor; [1]): 74.2%
- inhibition at 10 µM (B1R receptor of the rat; [2]): 101%

SMILES: COc1cc(C)c(S(=O)(=O)N2CCCCC2COCC(=O)N(C)CCN2CCCCC2)c(C)c1 (stereo not shown) [Example 532, 2-((1-(4-methoxy-2,6-dimethylphenylsulfonyl)piperidin-2-yl)methoxy)-N-methyl-N-(2-(piperidin-1-yl)ethyl)acetamide]
- inhibition at 10 µM (human B1R receptor; CHO-K1, test substance 10 μM): 96.4%
- inhibition at 10 µM (B1R receptor of the rat; CHO-K1, test substance 10 μM): 108%

SMILES: COc1cc(C)c(S(=O)(=O)N2CCCC2COCC(=O)N2CCN(c3ncccc3C#N)CC2)c(C)c1 (stereo not shown) [Example 312, 2-(4-(2-((1-(4-methoxy-2,6-dimethylphenylsulfonyl)pyrrolidin-2-yl)methoxy)acetyl)piperazin-1-yl)nicotinonitrile]
- inhibition at 10 µM (human B1R receptor; CHO-K1, test substance 10 μM): 98.5%
- inhibition at 10 µM (B1R receptor of the rat; CHO-K1, test substance 10 μM): 98.7%

SMILES: Cc1cc(C)c(S(=O)(=O)N2CCCCC2COCC(=O)Nc2cccc(CN3CCCCC3)c2)c(C)c1 (stereo not shown) [Example 76, N-(3-piperidin-1-ylmethyl-phenyl)-2-[1-(2,4,6-trimethyl-phenylsulfonyl)-piperidin-2-ylmethoxy]-acetamide]
- inhibition at 10 µM (human B1R receptor; CHO-K1, test substance 10 μM): 48.9%
- inhibition at 10 µM (B1R receptor of the rat; CHO-K1, test substance 10 μM): 40.3%

SMILES: COc1ccc(N2CCN(C(=O)COCC3CCCN3S(=O)(=O)c3c(Cl)cccc3Cl)CC2)cc1 (stereo not shown) [Example 325, 2-((1-(2,6-dichlorophenylsulfonyl)pyrrolidin-2-yl)methoxy)-1-(4-(4-methoxyphenyl)piperazin-1-yl)ethanone]
- inhibition at 10 µM (human B1R receptor; CHO-K1, test substance 10 μM): 102%
- inhibition at 10 µM (B1R receptor of the rat; CHO-K1, test substance 10 μM): 101%

SMILES: Cc1nccn1-c1ccc(NC(=O)COCC2CCCCN2S(=O)(=O)c2c(Cl)cccc2Cl)cc1 (stereo not shown) [Example 527, 2-((1-(2,6-dichlorophenylsulfonyl)piperidin-2-yl)methoxy)-N-(4-(2-methyl-1H-imidazol-1-yl)phenyl)acetamide]
- inhibition at 10 µM (human B1R receptor; CHO-K1, test substance 10 μM): 97.2%
- inhibition at 10 µM (B1R receptor of the rat; CHO-K1, test substance 10 μM): 97.3%

SMILES: Cc1ccc(S(=O)(=O)N2CCCCC2COCC(=O)N2CCN(C3CCN(C)CC3)CC2)c2ccccc12 (stereo not shown) [Example 155, 2-((1-(4-methylnaphthalen-1-ylsulfonyl)piperidin-2-yl)methoxy)-1-(4-(1-methylpiperidin-4-yl)piperazin-1-yl)ethanone dihydrochloride]
- inhibition at 10 µM (human B1R receptor; CHO-K1, test substance 10 μM): 107%
- inhibition at 10 µM (B1R receptor of the rat; CHO-K1, test substance 10 μM): 89.6%

SMILES: CN1CCC(N2CCN(C(=O)COCC3CCCCN3S(=O)(=O)c3ccc4ccccc4c3)CC2)CC1 (stereo not shown) [Example 111, 1-(4-(1-methylpiperidin-4-yl)piperazin-1-yl)-2-((1-(naphthalen-2-ylsulfonyl)piperidin-2-yl)methoxy)ethanone]
- inhibition at 10 µM (human B1R receptor; CHO-K1, test substance 10 μM): 91.9%
- inhibition at 10 µM (B1R receptor of the rat; CHO-K1, test substance 10 μM): 101%

SMILES: COc1cc(C)c(S(=O)(=O)N2CCCCC2COCC(=O)N2CCN(Cc3ccc(Cl)c(Cl)c3)CC2)c(C)c1 (stereo not shown) [Example 381, 1-(4-(3,4-dichlorobenzyl)piperazin-1-yl)-2-((1-(4-methoxy-2,6-dimethylphenylsulfonyl)piperidin-2-yl)methoxy)ethanone]
- inhibition at 10 µM (human B1R receptor; CHO-K1, test substance 10 μM): 77.9%
- inhibition at 10 µM (B1R receptor of the rat; CHO-K1, test substance 10 μM): 100%

SMILES: O=C(COCC1Cc2ccccc2N1S(=O)(=O)c1ccc(Cl)c(Cl)c1)NCC1CCCN(Cc2ccccc2)C1 (stereo not shown) [Example 16, N-(1-benzyl-piperidin-3-ylmethyl)-2-[1-(3,4-dichloro-phenylsulfonyl)-2,3-dihydro-1H-indol-2-ylmethoxy]-acetamide]
- inhibition at 10 µM (human B1R receptor; CHO-K1, test substance 10 μM): 95.9%
- inhibition at 10 µM (B1R receptor of the rat; CHO-K1, test substance 10 μM): 25.5%

SMILES: COc1cc(C)c(S(=O)(=O)N2CCCC2COCC(=O)N2CCC(CCN3CCCCC3)CC2)c(C)c1 (stereo not shown) [Example 268, 2-((1-(4-methoxy-2,6-dimethylphenylsulfonyl)pyrrolidin-2-yl)methoxy)-1-(4-(2-(piperidin-1-yl)ethyl)piperidin-1-yl)ethanone]
- inhibition at 10 µM (human B1R receptor; CHO-K1, test substance 10 μM): 104%
- inhibition at 10 µM (B1R receptor of the rat; CHO-K1, test substance 10 μM): 102%

SMILES: CN(C(=O)COCC1CCCCN1S(=O)(=O)c1c(Cl)cccc1Cl)[C@H]1CCN(Cc2ccccc2)C1 (stereo partly drawn) [Example 315, N—((S)-1-benzylpyrrolidin-3-yl)-2-((1-(2,6-dichlorophenylsulfonyl)piperidin-2-yl)methoxy)-N-methylacetamide]
- inhibition at 10 µM (human B1R receptor; CHO-K1, test substance 10 μM): 105%
- inhibition at 10 µM (B1R receptor of the rat; CHO-K1, test substance 10 μM): 101%

SMILES: CN1CCC(CN2CCN(C(=O)COC[C@@H]3Cc4ccccc4CN3S(=O)(=O)c3ccc(Cl)cc3Cl)CC2)CC1 [Example 184, (S)-2-((2-(2,4-dichlorophenylsulfonyl)-1,2,3,4-tetrahydroisoquinolin-3-yl)methoxy)-1-(4-((1-methylpiperidin-4-yl)methyl)piperazin-1-yl)ethanone]
- inhibition at 10 µM (human B1R receptor; CHO-K1, test substance 10 μM): 105%
- inhibition at 10 µM (B1R receptor of the rat; CHO-K1, test substance 10 μM): 99%

SMILES: CN1CCC(N2CCN(C(=O)COCC3CCCCN3S(=O)(=O)c3ccc(Cl)cc3Cl)CC2)CC1 (stereo not shown) [Example 120, 2-((1-(2,4-dichlorophenylsulfonyl)piperidin-2-yl)methoxy)-1-(4-(1-methylpiperidin-4-yl)piperazin-1-yl)ethanone]
- inhibition at 10 µM (human B1R receptor; CHO-K1, test substance 10 μM): 103%
- inhibition at 10 µM (B1R receptor of the rat; CHO-K1, test substance 10 μM): 103%

SMILES: COc1cc(C)c(S(=O)(=O)N2CCCCC2COCC(=O)Nc2ccc(N3CCCC3)cc2)c(C)c1 (stereo not shown) [Example 409, 2-((1-(4-methoxy-2,6-dimethylphenylsulfonyl)piperidin-2-yl)methoxy)-N-(4-(pyrrolidin-1-yl)phenyl)acetamide]
- inhibition at 10 µM (human B1R receptor; CHO-K1, test substance 10 μM): 28.1%
- inhibition at 10 µM (B1R receptor of the rat; CHO-K1, test substance 10 μM): 81.4%

SMILES: O=C(COCC1Cc2ccccc2N1S(=O)(=O)c1ccc(Cl)c(Cl)c1)NCc1ccc(CN2CCCC2)cc1 (stereo not shown) [Example 81, 2-[1-(3,4-dichloro-phenylsulfonyl)-2,3-dihydro-1H-indol-2-ylmethoxy]-N-(4-pyrrolidin-1-ylmethyl-benzyl)-acetamide]
- inhibition at 10 µM (human B1R receptor; CHO-K1, test substance 10 μM): 44.9%
- inhibition at 10 µM (B1R receptor of the rat; CHO-K1, test substance 10 μM): 34.1%
